Assay results published in US20220233746A1, “PHARMACEUTICAL COMPOSITION FOR JOINT DISEASE TREATMENT AND METHOD FOR PRODUCING SAME” (EDUCATIONAL FOUNDATION OF OSAKA MEDICAL AND PHARMACEUTICAL …, priority 2019, published 2022).

Columns and labels:
rabbit meniscus defect = experiment: Rabbit meniscus defect model, transplantation of peptide hydrogel into the defect; type: in vivo, Japanese white rabbits
Method: First, 20 male Japanese white rabbits weighing 3.0 to 3.4 kg at 6 months of age were prepared, and a cylindrical defect with a diameter of 2.0 mm was prepared in the medial anterior segment of the meniscus of both knees (FIG. 2A). Further, a peptide hydrogel produced by the above method using a peptide of KI24RGDS and 5×PBS was prepared (FIG. 2B), and the peptide hydrogel was filled in the defect. The group in which the defect was filled with peptide hydrogel was designated as the KI24RGDS group, and the group in which no treatment was applied to the defect was designated as the control group. After transplantation, tissue evaluation was performed on the knees of each group using hematoxylin/eosin staining (HE staining) or safranin O staining. Tissue evaluation was performed at 2, 4, 8 and 12 weeks after transplantation, and 5 animals (10 knees) were evaluated at each evaluation period. In addition, the tissue evaluation used Ishida score and Quantitative Analysis of the Occupation Ratio of Tissue Regeneration (R/D ratio). In the evaluation based on Ishida score, scores were given from the three viewpoints shown in Table 1 below, and the degree of tissue repair was evaluated by the total. On the other hand, in the evaluation based on the R/D ratio, the degree of tissue repair was evaluated by analyzing the area of the entire defect (D) and the area of the repaired tissue (R) and calculating the ratio of R/D using ImageJ software as shown in FIG. 3.

[1] = Measurement of mechanical strength of peptide hydrogel (rheology measurement, rheometer); type: physicochemical
Method: Next, an equal amount (100 μL) of 2×PBS, 4×PBS, 6×PBS or 10×PBS was added to the aqueous peptide solution and mixed. Therefore, the final concentration of PBS in the mixture was 1×PBS, 2×PBS, 3×PBS, and 5×PBS, respectively. Thereafter, it was allowed to stand still in a cool and dark place for one day. As a result, the peptide in the aqueous peptide solution self-assembled by the action of the salt in PBS, and a peptide hydrogel was obtained. In addition, as a comparative example, Eagle's minimum essential medium (EMEM), which contains salts necessary for gel formation but is considered to be toxic in vivo, or 10 wt % NaCl aqueous solution (final concentration is 5 wt %) was added in an equal amount to the peptide aqueous solution and mixed, and the mixture was allowed to stand still in a cool and dark place for 1 day. A peptide hydrogel was also obtained in this comparative example.
[Example 2: Measurement of mechanical strength of peptide hydrogel] In order to evaluate the mechanical strength of each peptide hydrogel obtained as described above, a rheometer (HAAKE viscosity/viscoelasticity measuring device (HAAKE MARS40) manufactured by Thermo Scientific) was used for each peptide hydrogel and the rheology thereof was measured.

[2] = hydrogel made with 5×PBS filled in 2.0 mm meniscus defect, 2, 4, 8 and 12 weeks after transplantation, versus untreated control group

IKIKIKIKIKRGDSKIKIKIKIKI (Peputide including strand and turn) [KI24RGDS, self-assembling β-hairpin peptide tested as a peptide hydrogel formed by adding PBS, NaCl solution or EMEM to its aqueous solution]
macroscopic findings of the meniscus defect (rabbit meniscus defect; 2, 4, 8 and 12 weeks after transplantation (FIG. 4)): became smaller and repaired
safranin O-stained meniscus tissue findings (rabbit meniscus defect; 2, 4, 8 and 12 weeks after transplantation (FIG. 5)): cells gathered in the defect and the tissue was repaired
Ishida score (rabbit meniscus defect; [2]): higher in the KI24RGDS group than in the control group
R/D ratio (Occupation Ratio of Tissue Regeneration) (rabbit meniscus defect; [2]): higher in the KI24RGDS group than in the control group
difference between the storage elastic modulus G and the loss elastic modulus G″ ([1]; comparative hydrogel produced with 5 wt % NaCl aqueous solution (final concentration)): approximately 3750
difference between the storage elastic modulus G and the loss elastic modulus G″ ([1]; hydrogel produced with 3×PBS (final concentration)): approximately 3950
loss elastic modulus G″ of the peptide hydrogel ([1]; hydrogel produced with 5×PBS (final concentration)): about 800
storage elastic modulus G of the peptide hydrogel ([1]; hydrogel produced with 5×PBS (final concentration), 6% aqueous peptide solution mixed in equal amount): about 15,000
